Measured values from patent US20070299029A1, “Hepatic stellate cell specific promoter and uses thereof” (Agency for Science, Technology and Research, priority 2005, published 2007).

Key:
[1] = system: GFAP-lacZ expression in T6/lacZ/C1 cells; assay: X-gal staining of T6/lacZ/C1 cells treated with TGF-β1, PDGF-BB and LPS; assay type: cell-based, rat; conditions: 0.1 to 10 ng/ml, full DMEM, 72 hours, X-gal one hour
Method: A lacZ reporter assay kit for cell staining (InvivoGen, CA, USA) was used to detect the reporter gene activity in both stable and transient transfectants. Development of the blue end product was monitored at different time intervals (15, 30, 60, 90, and 120 minutes). The staining results were documented with a digital camera (DP12) attached to an Olympus inverted bright field microscope (IX51).
To determine possible induction of GFAP-lacZ expression by molecules with pro-fibrotic and proinflammatory properties in activated HSC the T6/lacZ/C1 cells were treated with TGF-β1, PDGF-BB and LPS respectively at various concentrations (0, 0.1, 1 and 10 ng/ml) in the full DMEM medium for 72 hours. The cells were then stained with X-gal for one hour and photographed. […] In order to obtain truly quantitative data, a solution assay was employed to measure possible up-regulation of β-galactosidase activity by TGF-β1 in experiments below.

[2] = system: 2.2 kb hGFAP-lacZ transgene in T6/lacZ/C1 cells; assay: quantitative solution assay of β-galactosidase activity in T6/lacZ/C1 cells; assay type: cell-based, rat
Method: To quantify the β-galactosidase activity in cell extracts reported in FIGS. 4 to 10, an enzyme assay kit (E2000, Promega, Wis., USA) was used to measure the specific activity of P-galactosidase, according to the manufacturer's instructions in a 96-well format. Briefly, the cells were washed twice with 1×PBS buffer (pH7.4), lysed for 15 minutes at room temperature with the reporter lysis buffer, and harvested using a cell scraper. The total cell extracts were appropriately diluted (5-10 fold), and assayed for the enzyme activity. The specific β-galactosidase activity was expressed in milliunit per milliliter (mU/ml) using a standard curve established from the β-galactosidase standard (provided with the kit). The protein concentration was measured with a BCA protein assay kit (Pierce, Ill., USA), and used to further convert the specific β-galactosidase activity from mU/ml to mU/μg total cellular protein. Six independent experiments were performed for each time and concentration data point.
(§1) Cells were seeded into 12-well plates in full DMEM and 500 μg/ml Zeocin. Twelve hours prior to the cytokine treatment, medium was changed so that the cells were allowed to grow in low serum (0.5% FBS) DMEM. The cells at a confluence of 70-80% were incubated with various concentrations (0, 0.1, 1 and 10 ng/ml) of recombinant human TGF-β1, PDGF-BB (BioVision, CA, USA) and 0, 0.1, 1 and 10 μg/ml lipopolysaccharide (LPS E. coli, Sigma) respectively for 0, 2, 8, 16, 24, 48 and 72 hours before they were harvested for β-galactosidase activity assay and real-time RT-PCR GFAP assay.
To quantify specific transgene response to TGF-β1, we first set up an experiment to assess possible effects that serum concentration and culture duration may have on the transgene expression. T6/lacZ/C1 cells were initially grown in DMEM with high serum (10% FBS), and then some of the cells were starved with a DMEM with low serum (0.5% FBS) for 12 hours prior to the addition of TGF-β1 (1 ng/ml). After incubation for various times (0, 2, 8, 24, 48 and 72 hours), cells were harvested for β-galactosidase activity assay. […] After 72 hours, the level slipped to 58% of the value at 0 hour (P<0.001). The assay results were depicted in FIG. 8.
To further dissect the TGF-β1 contribution to the transgene induction, we treated T6/lacZ/C1 cells grown in low serum with various concentrations of TGF-β1 (0, 0.1, 1, 10 ng/ml) and assayed the enzymatic activity for three time points (24, 48 and 72 hours). The assay results were plotted in FIG. 9. […] When the non-treatment groups were normalized to 1 and the magnitude of induction were plotted for the 10 ng/ml treatment groups at all three time points (FIG. 10), a trend of increasing induction with time was apparent.

endogenous rat GFAP mRNA [3] = assay: real-time RT-PCR for endogenous rat GFAP mRNA in T6/lacZ/C1 cells; assay type: cell-based
Method: as §1
Total RNA was reverse transcribed to cDNA using Taqman's reverse transcription reagent (Cat. #N8O8-0234A total of 400 ng of RNA in 7.7 μl nuclease-free water was added to 2 μl 10× reverse transcriptase buffer, 4.4 μl 25 mM magnesium chloride, 4 μl deoxyNTP mixtures, 1 μl random hexamers, 0.4 μl RNase inhibitor and 0.5 μl reverse transcriptase (50 U/μl) in a final reaction volume of 20 μl. The reaction was performed for 10 min at 25° C. (annealing), 30 min at 48° C. (cDNA synthesis) and 5 min at 95° C. (enzyme denaturation).
Real-time quantitative PCR was carried out with an ABI 7500 Real Time PCR System (Applied Biosystems, CA, USA). One microliter of sample cDNA was used in each PCR reaction, with the housekeeping β-actin gene as a reference for normalization. The primers and probes for rat β-actin and GFAP were purchased from Taqman's assay-on-demand database. […]
(§2) Relative quantitation of the target mRNA was calculated using the comparative threshold cycle (CT) methods as described in the User Bulletin #2 (ABI Prism 7700 Sequence Detection System). CT indicates the fractional cycle number at which the amount of amplified target reaches a fixed threshold within the linear phase of gene amplification. ΔCT, which reflects the difference between CT target and CT β-actin, is inversely correlated to the abundance of mRNA transcripts in the samples. ΔCT for each sample was normalized against control experiment or calibrator and expressed as ΔΔCT. Relative quantitation is given by 2^−ΔΔCT to express the up-regulation or down regulation of the target gene under the treatments compared to the control. Six independent experiments were performed for each data point and three ACT were measured for each experiment.
It was known that GFAP, along with desmin, SMAA, and vimentin, was expressed in the clonal T6 cells (Vogel et al. (2000), J Lipid Res. 41(6):882). […] In order to investigate how the endogenous GFAP expression is regulated by TGF-β1 in the T6/lacZ/C1 cells during different time course, we quantified rat GFAP mRNA level using a real-time RT-PCR method. […] Total RNA was isolated from different cells and quantified as described in Materials and Methods, and the results were depicted in FIG. 11.

GFAP-lacZ transgene = assay: chemiluminescent β-galactosidase activity assay of GFAP-lacZ transgene expression in T6/GFAP-lacZ cells; assay type: cell-based, rat; conditions: 10 ng/ml PDGF-BB, 48 hours, low serum DMEM
Method: (§3) Cells were initially seeded in 12-well plates in DMEM supplemented with 10% FBS and weaned to a low serum DMEM (0.5% FBS) at a confluence of 70-80% for 12 hours of adaptation. Cells were then incubated with different concentrations of compounds for various amounts of time before being assayed for β-galactosidase activity and GFAP mRNA. For compound attenuation studies, cells were treated with a pro-fibrotic cytokine (TGF-β1 or PDGF-BB) either sequentially or concurrently with a compound (EGCG or genistein). In the sequential scheme, cells were first treated with a cytokine for 1-3 days, then the cytokine-containing culture medium was replaced with a fresh medium containing a particular compound only for various times. Details of the cytokine/compound treatments can be found in the individual figure legends.
A lacZ reporter assay kit for cell staining (InvivoGen, CA, USA) was used to detect the reporter gene activity in T6/GFAP-lacZ cells treated with EGCG or genistein. The staining results were documented with a digital camera (DP12) attached to an Olympus inverted bright field microscope (IX51) after development for 60 min. For quantification, the β-galactosidase activity in cell extracts was measured using a chemiluminescent assay kit (Roche, Mannheim, Germany) in a 96-well plate format, according to the manufacturer's instructions. Briefly, cells were washed twice with ice-cold 1×PBS (pH 7.4), lysed for 30 minutes at room temperature with the lysis buffer, and supernatant was collected for assays. Protein concentration was determined with a BCA protein assay kit (Pierce, Ill., USA). Specific β-galactosidase activity was obtained by normalizing against total cellular protein content.

endogenous rat GFAP mRNA [4] = assay: real-time RT-PCR for endogenous rat GFAP mRNA in T6/GFAP-lacZ cells; assay type: cell-based; conditions: 10 ng/ml PDGF-BB, 24 hours, low serum DMEM
Method: as §3
Total RNA was reverse-transcribed to cDNA using Taqman's reverse transcription reagent (Applied Biosystems, CA, USA). A total of 200 ng of RNA in 7.7 μl of nuclease-free water was added to 2 μl 10× reverse transcriptase buffer, 4.4 μl 25 mM magnesium chloride, 4 μl deoxyNTP mixtures, 1 μl random hexamers, 0.4 μl RNase inhibitor and 0.5 μl reverse transcriptase (50 U/μl) in a final reaction volume of 20 μl. The reaction was performed for 10 min at 25° C. (annealing), 30 min at 48° C. (cDNA synthesis) and 5 min at 95° C. (enzyme denaturation).
Real-time quantitative PCR was carried out with an ABI 7500 Fast Real-time PCR System (Applied Biosystems, CA, USA). Two micro liters of sample cDNA were used in each PCR reaction, with β-actin gene as a reference for normalization. The primers and probes for rat β-actin and GFAP were ordered from Taqman's assay-on-demand database. The PCR reaction was performed under a default profile consisting of 95° C. for 20 seconds (enzyme denaturation) and 40 cycles of amplification (denaturation 3 seconds, annealing and extension 30 seconds). Some of the real-time RT-PCR reactions were separated on an agarose gel for visual confirmation of discrete products (data not shown).
as §2, with “samples. ACT” for “samples. ΔCT”, “or down-regulation” for “or down regulation”, “control.” for “control. Six independent experiments were performed for each data point and three ACT were measured for each experiment.”

[5] = 10 ng/ml TGF-β1, low serum, 72 hours

| Molecule | X-gal blue staining compared to the untreated [1] | specific β-galactosidase activity ([2]; 1 ng/ml TGF-β1, 0.5% FBS, 24 hour (peak)) | transgene expression level relative to 0 hour ([2]; 1 ng/ml TGF-β1, 0.5% FBS, 48 hours) | transgene expression level, % of the value at 0 hour ([2]; 1 ng/ml TGF-β1, 0.5% FBS, 72 hours) | induction of β-galactosidase activity ([2]; 10 ng/ml TGF-β1, low serum, 24, 48 and 72 hours) | absolute enzymatic (β-galactosidase) activity [2, 5] | magnitude of induction of β-galactosidase activity vs non-treatment group (normalized to 1) [2, 5] | GFAP mRNA level relative to basal level at 0 hour (normalized to 1) (endogenous rat GFAP mRNA [3]; 1 ng/ml TGF-β1, 16 hour) | GFAP mRNA level relative to basal level at 0 hour (normalized to 1) (endogenous rat GFAP mRNA [3]; 1 ng/ml TGF-β1, 48 hours) | GFAP mRNA level relative to basal level at 0 hour (normalized to 1) (endogenous rat GFAP mRNA [3]; 1 ng/ml TGF-β1, 72 hours) | GFAP mRNA level relative to basal level (endogenous rat GFAP mRNA [3]; 1 ng/ml TGF-β1, within the first 24 hours (except 16 hour)) | induction of transgenic GFAP-lacZ expression (GFAP-lacZ transgene) | induction of endogenous GFAP (endogenous rat GFAP mRNA [4]) |
| --- | --- | --- | --- | --- | --- | --- | --- | --- | --- | --- | --- | --- | --- |
| TGF-β1: recombinant human transforming growth factor-β1, pro-fibrotic cytokine (BioVision) | more intense blue staining | 0.52 mU/μg | dropped to the same level as at 0 hour | 58% | Significant induction | 0.43 mU/μg | nearly two fold | 0.5 fold | 7 fold | 8.5 fold | remained steady |  |  |
| PDGF-BB: recombinant human platelet derived growth factor-BB, pro-fibrotic cytokine (BioVision) (protein, UniProt P01127 82-190, looked up) Platelet-derived growth …: SLGSLTIAEPAMIAECKTRTEVFEISRRLIDRTNANFLVWPPCVEVQRCSGCCNNRNVQCRPTQVQLRPVQVRKIEIVRKKPIFKKATVTLEDHLACKCETVAAARPVT | less pronounced response |  |  |  |  |  |  |  |  |  |  | 24% | 53% |
